Values quoted from earlier work in patent publication US20240423930A1, “PHARMACEUTICAL COMPOSITION AND METHOD FOR TREATING CARDIOVASCULAR DISEASES” (priority 2020, published 2024).

System: furin
Settings: ectopic expression of the inhibitor; in vitro digestion assay

blocked TGF-beta1 processing mediated by endogenous enzymes: 80%
Substance: alpha (1)-antitrypsin Portland [alpha(1)-AT-PDX]
